# Non-standard residues stand in square brackets, D forms with d. No end group written: not given here. *: point of attachment. Biotin = O=C1N[C@H]2[C@H](CS[C@H]2CCCCC(=O)*)N1; R(dz) = photo-arginine
# Tested on: HEK293T nuclear lysates
# Test: SILAC‐based pull‐down proteomics H4K5me1/H4K5 (probes 6/5)
# Format: binding, human
# Conditions: for B6 log2 (H4K5me/H4K5): run B6; for C6 log (H4K5me/H4K5): run C6
substance,measurement,setting,value
probe 6: H4K5me peptide probe with photo‐arginine R(dz) and K(biotin) (SG[R(dz)]GK(Me)GGKGLGKGGK(Biotin)),proteins recruited (SILAC proteomics H4K5me1/H4K5),"10 µµ probe, 365 nm UV 30 min, streptavidin enrichment, n = 2",could recruit L3MBTL2
same,B6 log2 (H4K5me/H4K5),protein A0A0B4J1Z1 SRSF7,0.2308
same,C6 log (H4K5me/H4K5),protein A0A0B4J1Z1 SRSF7,0.1007
same,B6 log2 (H4K5me/H4K5),protein A0A0C4DG89 DDX46,0.248
same,C6 log (H4K5me/H4K5),protein A0A0C4DG89 DDX46,0.4939
same,B6 log2 (H4K5me/H4K5),protein A0A0C4DG98 THOC2,0.2302
same,C6 log (H4K5me/H4K5),protein A0A0C4DG98 THOC2,-0.4085
same,B6 log2 (H4K5me/H4K5),protein A0A2R8Y5G6 DDX3X,0.1671
same,C6 log (H4K5me/H4K5),protein A0A2R8Y5G6 DDX3X,0.08362
same,B6 log2 (H4K5me/H4K5),protein A0A2R8Y855 SMARCE1,0.1691
same,C6 log (H4K5me/H4K5),protein A0A2R8Y855 SMARCE1,0.1589
same,B6 log2 (H4K5me/H4K5),protein A0A087WWS1 THOC1,0.1897
same,C6 log (H4K5me/H4K5),protein A0A087WWS1 THOC1,0.01015
same,B6 log2 (H4K5me/H4K5),protein A0A087X2G1 DDX1,0.2376
same,C6 log (H4K5me/H4K5),protein A0A087X2G1 DDX1,0.1483
same,B6 log2 (H4K5me/H4K5),protein B1AK87 CAPZB,0.2362
same,C6 log (H4K5me/H4K5),protein B1AK87 CAPZB,0.1912
same,B6 log2 (H4K5me/H4K5),protein C9JFR7 CYCS,0.1664
same,C6 log (H4K5me/H4K5),protein C9JFR7 CYCS,0.2306
same,B6 log2 (H4K5me/H4K5),protein E5RJR5 SKP1,0.2613
same,C6 log (H4K5me/H4K5),protein E5RJR5 SKP1,0.4362
same,B6 log2 (H4K5me/H4K5),protein E9PCY7 HNRNPH1,0.1643
same,C6 log (H4K5me/H4K5),protein E9PCY7 HNRNPH1,-0.04567
same,B6 log2 (H4K5me/H4K5),protein E9PHA2 NCAPH,0.2207
same,C6 log (H4K5me/H4K5),protein E9PHA2 NCAPH,-0.3454
same,B6 log2 (H4K5me/H4K5),protein F5GYN4 OTUB1,0.1534
same,C6 log (H4K5me/H4K5),protein F5GYN4 OTUB1,-0.02948
same,B6 log2 (H4K5me/H4K5),protein F5H8F7 ASH2L,0.1889
same,C6 log (H4K5me/H4K5),protein F5H8F7 ASH2L,0.02508
same,B6 log2 (H4K5me/H4K5),protein F8VRQ1 HNRNPA1,0.2132
same,C6 log (H4K5me/H4K5),protein F8VRQ1 HNRNPA1,0.1279
same,B6 log2 (H4K5me/H4K5),protein G3V4C1 HNRNPC,0.1754
same,C6 log (H4K5me/H4K5),protein G3V4C1 HNRNPC,0.1012
same,B6 log2 (H4K5me/H4K5),protein G3V529 DDX24,0.1507
same,C6 log (H4K5me/H4K5),protein G3V529 DDX24,-0.9684
same,B6 log2 (H4K5me/H4K5),protein J3KTA4 DDX5,0.1484
same,C6 log (H4K5me/H4K5),protein J3KTA4 DDX5,0.164
same,B6 log2 (H4K5me/H4K5),protein M0R3H0 RPS16,0.2369
same,C6 log (H4K5me/H4K5),protein M0R3H0 RPS16,-0.3242
same,B6 log2 (H4K5me/H4K5),protein O00567 NOP56,0.2329
same,C6 log (H4K5me/H4K5),protein O00567 NOP56,0.2086
same,B6 log2 (H4K5me/H4K5),protein O14980 XPO1,0.2117
same,C6 log (H4K5me/H4K5),protein O14980 XPO1,-0.03544
same,B6 log2 (H4K5me/H4K5),protein O15042 U2SURP,0.1992
same,C6 log (H4K5me/H4K5),protein O15042 U2SURP,0.3265
same,B6 log2 (H4K5me/H4K5),protein O43143 DHX15,0.2048
same,C6 log (H4K5me/H4K5),protein O43143 DHX15,0.2816
same,B6 log2 (H4K5me/H4K5),protein O43290 SART1,0.229
same,C6 log (H4K5me/H4K5),protein O43290 SART1,0.0852
same,B6 log2 (H4K5me/H4K5),protein O43395 PRPF3,1.011
same,C6 log (H4K5me/H4K5),protein O43395 PRPF3,1.011
same,B6 log2 (H4K5me/H4K5),protein O43491 EPB41L2,0.1873
same,C6 log (H4K5me/H4K5),protein O43491 EPB41L2,0.1809
same,B6 log2 (H4K5me/H4K5),protein O43719 HTATSF1,0.2156
same,C6 log (H4K5me/H4K5),protein O43719 HTATSF1,0.1171
same,B6 log2 (H4K5me/H4K5),protein O43929 ORC4,0.2071
same,C6 log (H4K5me/H4K5),protein O43929 ORC4,0.2724
same,B6 log2 (H4K5me/H4K5),protein O60216 RAD21,0.1881
same,C6 log (H4K5me/H4K5),protein O60216 RAD21,0.2602
same,B6 log2 (H4K5me/H4K5),protein O60934 NBN,0.1747
same,C6 log (H4K5me/H4K5),protein O60934 NBN,0.1942
same,B6 log2 (H4K5me/H4K5),protein O75525 KHDRBS3,0.1909
same,C6 log (H4K5me/H4K5),protein O75525 KHDRBS3,0.05512
same,B6 log2 (H4K5me/H4K5),protein O95202 LETM1,0.2397
same,C6 log (H4K5me/H4K5),protein O95202 LETM1,0.3564
same,B6 log2 (H4K5me/H4K5),protein O95218 ZRANB2,0.1711
same,C6 log (H4K5me/H4K5),protein O95218 ZRANB2,0.2764
same,B6 log2 (H4K5me/H4K5),protein O95456 PSMG1,0.8105
same,C6 log (H4K5me/H4K5),protein O95456 PSMG1,0.8105
same,B6 log2 (H4K5me/H4K5),protein O95983 MBD3,0.1485
same,C6 log (H4K5me/H4K5),protein O95983 MBD3,0.1715
same,B6 log2 (H4K5me/H4K5),protein P06748 NPM1,0.1928
same,C6 log (H4K5me/H4K5),protein P06748 NPM1,0.1848
same,B6 log2 (H4K5me/H4K5),protein P07900 HSP90AA1,0.1623
same,C6 log (H4K5me/H4K5),protein P07900 HSP90AA1,0.0357
same,B6 log2 (H4K5me/H4K5),protein P09661 SNRPA1,0.1608
same,C6 log (H4K5me/H4K5),protein P09661 SNRPA1,0.0265
same,B6 log2 (H4K5me/H4K5),protein P11142 HSPA8,0.1602
same,C6 log (H4K5me/H4K5),protein P11142 HSPA8,0.128
same,B6 log2 (H4K5me/H4K5),protein P11388 TOP2A,0.1715
same,C6 log (H4K5me/H4K5),protein P11388 TOP2A,-0.2242
same,B6 log2 (H4K5me/H4K5),protein P12004 PCNA,0.186
same,C6 log (H4K5me/H4K5),protein P12004 PCNA,0.08942
same,B6 log2 (H4K5me/H4K5),protein P19338 NCL,0.2437
same,C6 log (H4K5me/H4K5),protein P19338 NCL,0.2101
same,B6 log2 (H4K5me/H4K5),protein P22061 PCMT1,0.8673
same,C6 log (H4K5me/H4K5),protein P22061 PCMT1,0.8673
same,B6 log2 (H4K5me/H4K5),protein P22087 FBL,0.1734
same,C6 log (H4K5me/H4K5),protein P22087 FBL,0.2534
same,B6 log2 (H4K5me/H4K5),protein P22102 GART,0.1557
same,C6 log (H4K5me/H4K5),protein P22102 GART,-0.03854
same,B6 log2 (H4K5me/H4K5),protein P25398 RPS12,0.2482
same,C6 log (H4K5me/H4K5),protein P25398 RPS12,0.204
same,B6 log2 (H4K5me/H4K5),protein P29692 EEF1D,0.1672
same,C6 log (H4K5me/H4K5),protein P29692 EEF1D,-0.1339
same,B6 log2 (H4K5me/H4K5),protein P31153 MAT2A,0.1703
same,C6 log (H4K5me/H4K5),protein P31153 MAT2A,0.05667
same,B6 log2 (H4K5me/H4K5),protein P42166 TMPO,0.2154
same,C6 log (H4K5me/H4K5),protein P42166 TMPO,0.1594
same,B6 log2 (H4K5me/H4K5),protein P46109 CRKL,0.2247

# Source: PMC11005723, “Development of Complementary Photo‐arginine/lysine to Promote Discovery of Arg/Lys hPTMs Interactomes” (Advanced Science, 2024)
